{"source": "patent US9677109B2", "about": "“Rapid determination of microbial growth and antimicrobial susceptibility” (priority 2013, dated 2017)", "assay_type_in_all_cases": "cell-based", "key": {"[1]": {"tested_on": "Enteric", "assay": "MADM (BACcel) growth analysis sensitivity, surveillance mini-BAL", "details": "specimen 005-D7, BACcel ID Enteric, 1.26 × 10^5 CFU/ml", "protocol": "(§1) Adult MICU patients with identified surrogate were included within 72 hours of intubation and if anticipated to require MV for >48 h. Moribund state or pregnancy were exclusions. Surveillance mini-BAL (Combicath, Plastimed) was performed on Day 1, 3, 5, 7 and 10 of MV. Samples were split and processed for both a) routine respiratory quantitative microbiological culture and sensitivity assays (>48 h result availability) and b) rapid (<8 h) flowcell/surface-capture assays using the MADM system. Viable microorganisms were identified using growth analysis enhanced by a focused VAP antibody panel (S. aureus, P. aeruginosa, A. baumannii). Untypable organisms were also reported. Sensitivity was assessed using growth analysis. Attending physicians were blinded to MADM system results.\n(§2) BAL sample were prepared, removing debris and separating microorganisms from other sample material. Sample microorganisms were introduced into a multichannel fluidic cassette as described elsewhere herein. Bacteria were concentrated and retained on the lower surface of all flowcells using low-voltage electrical field (5 min). Antibody labeling of bacteria in flowcells was used to aid identification.\n(§3) The automated digital microscopy system was used to perform darkfield imaging of 10 fields of view every 10 minutes for 180 minutes in each flowcell channel. Initial epifluorescence imaging was also performed for antibody detection. […] Identification consisted of probability scores based on microorganism morphology and growth rates. Antibody labeling identification data was also incorporated. Observed microorganisms were then classified as STAU, PSAE, or non-target. Antibiotic responses were used to aid identification when appropriate. Quantitation was performed by counting identified microorganism and computing original specimen CFU/mL."}, "[2]": {"tested_on": "S. maltophilia (Steno)", "assay": "MADM (BACcel) growth analysis sensitivity, surveillance mini-BAL", "protocol": "as §1, §2, §3"}, "[3]": {"tested_on": "S. aureus (STAU)", "assay": "MADM (BACcel) growth analysis sensitivity, surveillance mini-BAL", "details": "specimen 008-D7, BACcel ID STAU, 1.11 × 10^6 CFU/ml", "protocol": "as §1, §2, §3"}, "[4]": {"tested_on": "Staphylococcus aureus (SA)", "assay": "MADM clone growth in antibiotic agar, simulated blood specimens", "details": "SA in 6 μg/mL FOX, FIG. 10B, three hours", "protocol": "The MADM system used a custom microscope and pipetting robot, plus an evaluation system, as described herein. 32-channel disposable cassettes (FIG. 4A) enabled live microorganism immobilization for microscopy and fluid exchanges for different test agents. The microscope scanned 40 image fields in each flowcell channel, each channel having organisms extracted from about 3.5 μL of prepared inoculum.\nSimulated blood specimens consisted of isolates spiked into 10 mL each of 29 aliquots of two short-fill CPD blood bank bags to make approximately 5 CFU/mL of bacterial target species, confirmed by quantitative culture. Spiked isolates included 14 Staphylococcus aureus (SA), 3 Pseudomonas aeruginosa (PA), or 12 non-target Gram-negative bacilli species. Dilution of each sample with 30 mL of modified TSB culture medium promoted growth. 20 additional control aliquots contained no spikes. 4-hour incubation at 35° C., followed with brief spin cleanup, ended with pellet resuspension into an electrokinetic buffer to make 1 mL samples for MADM system analysis. 20 μL sample aliquots were then pipetted into 14 cassette flowcells. A 5-minute low-voltage electrokinetic capture was performed to concentrate microorganisms on the lower surface of each flowcell where a capture coating immobilized the bacterial cells. […]"}, "[5]": {"tested_on": "Staphylococcus aureus (STAU)", "assay": "MADM resistance phenotype test, respiratory specimens", "protocol": "(ABCC). Concurrent quantitative culture (qCx) was performed on specimens.\n20 μL samples of prepared specimen were pipetted into independent flowcell channels and a low-voltage electrical field was applied for 5 minutes. The electrical field concentrated bacteria onto a functional surface coating that immobilized the bacteria on the lower flowcell surface. Each flowcell channel received only one type of test reagent solution that contained a selective agent if required (only for channels used to test AB, sulbactam 32 μg/mL).\nThe instrument acquired images at 10-minutes intervals for 180 minutes, using 10 fields of view in each flowcell channel through a 20× objective. Imaging used darkfield illumination. Identification variables included response to selective agents (AB with sulbactam), cell morphology, growth morphology, and growth rate.\nIdentification algorithms applied to each individual immobilized bacterial cell. The system measured the amount of change in mass over time to compute growth rates. Identification consisted of computing and combining probability scores for morphology, response to selective media, and growth rates to produce a receiver operating characteristic curve (ROC) to derive classification criteria."}}}
{"smiles": "CO[C@@]1(NC(=O)Cc2cccs2)C(=O)N2C(C(=O)O)=C(COC(N)=O)CS[C@@H]21", "note": "[FOX, cefoxitin]", "values": [{"measurement": "Phenotype, sensitivity", "setting": "[1]", "value": "all growth"}, {"measurement": "Phenotype, sensitivity", "setting": "[2]; specimen 006-D1, BACcel ID Steno, 7.68 × 10^5 CFU/ml", "value": "growth, TZP-"}, {"measurement": "Phenotype, sensitivity", "setting": "[2]; specimen 006-D3, BACcel ID Steno, 1.60 × 10^4 CFU/ml", "value": "growth, TZP-"}, {"measurement": "Phenotype, sensitivity", "setting": "[3]", "value": "FOX-R"}, {"measurement": "Clone growth", "setting": "[4]", "value": "growth indicating MRSA phenotype"}, {"measurement": "MADM resistance phenotype", "setting": "[5]; specimen DH 425, Mini-BAL", "value": "R"}, {"measurement": "MADM resistance phenotype", "setting": "[5]; specimen DH 427, Mini-BAL", "value": "S"}, {"measurement": "MADM resistance phenotype", "setting": "[5]; specimen DH 439, Mini-BAL", "value": "R"}, {"measurement": "MADM resistance phenotype", "setting": "[5]; specimen DH 440, BAL", "value": "S"}, {"measurement": "MADM resistance phenotype", "setting": "[5]; specimen DH 457, BAL", "value": "S"}, {"measurement": "MADM resistance phenotype", "setting": "[5]; specimen DH 485, BAL", "value": "S"}, {"measurement": "MADM resistance phenotype", "setting": "[5]; specimen DH 509, BAL", "value": "S"}, {"measurement": "MADM resistance phenotype", "setting": "[5]; specimen DH 514, Mini-BAL", "value": "S"}, {"measurement": "MADM resistance phenotype", "setting": "[5]; specimen DH 543, BAL", "value": "S"}, {"measurement": "MADM resistance phenotype", "setting": "[5]; specimen DH 550, BAL", "value": "S"}, {"measurement": "MADM resistance phenotype", "setting": "[5]; specimen DH 556, Mini-BAL", "value": "S"}, {"measurement": "MADM resistance phenotype", "setting": "[5]; specimen T12, ETA", "value": "R"}]}
